Here are results for 16 compounds from patent US20260232670A1, “TYRO3 SELECTIVE INHIBITORS AND USES THEREOF” (THE UNIVERSITY OF NORTH CAROLINA AT CHAPEL HILL, priority 2023, published 2026).

Structures are written as SMILES.

The target in one data set is T1, TYRO3 (Homo sapiens, UniProt Q06418).
T1 sequence (Q06418 41-890): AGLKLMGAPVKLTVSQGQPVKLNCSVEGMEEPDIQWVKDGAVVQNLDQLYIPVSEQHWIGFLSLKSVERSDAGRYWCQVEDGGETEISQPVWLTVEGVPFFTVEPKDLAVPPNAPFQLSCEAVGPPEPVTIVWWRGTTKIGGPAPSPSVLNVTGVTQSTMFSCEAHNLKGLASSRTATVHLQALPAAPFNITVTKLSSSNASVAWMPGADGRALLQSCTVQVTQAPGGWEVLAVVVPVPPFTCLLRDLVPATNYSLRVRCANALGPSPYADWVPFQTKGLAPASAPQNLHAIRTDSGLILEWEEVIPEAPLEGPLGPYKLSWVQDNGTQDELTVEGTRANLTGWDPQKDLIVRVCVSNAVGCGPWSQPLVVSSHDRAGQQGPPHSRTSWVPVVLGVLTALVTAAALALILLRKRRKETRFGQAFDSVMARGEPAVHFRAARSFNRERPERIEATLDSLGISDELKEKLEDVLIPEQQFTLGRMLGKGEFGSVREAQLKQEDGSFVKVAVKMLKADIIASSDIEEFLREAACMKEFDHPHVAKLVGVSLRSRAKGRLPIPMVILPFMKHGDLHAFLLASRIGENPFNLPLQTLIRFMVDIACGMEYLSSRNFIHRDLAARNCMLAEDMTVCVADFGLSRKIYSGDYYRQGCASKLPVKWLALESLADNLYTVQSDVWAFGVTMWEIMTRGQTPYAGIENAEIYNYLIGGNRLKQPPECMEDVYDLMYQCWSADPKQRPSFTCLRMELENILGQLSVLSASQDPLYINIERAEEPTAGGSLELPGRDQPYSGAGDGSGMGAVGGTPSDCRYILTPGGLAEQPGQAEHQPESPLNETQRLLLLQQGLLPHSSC
As to the kind of experiment: Microfluidic capillary electrophoresis (MCE) kinase activity assay, Tyro3. In kind it is biochemical.

Another data set has as its target T2, AXL (Homo sapiens, UniProt P30530).
T2 sequence (P30530 26-894): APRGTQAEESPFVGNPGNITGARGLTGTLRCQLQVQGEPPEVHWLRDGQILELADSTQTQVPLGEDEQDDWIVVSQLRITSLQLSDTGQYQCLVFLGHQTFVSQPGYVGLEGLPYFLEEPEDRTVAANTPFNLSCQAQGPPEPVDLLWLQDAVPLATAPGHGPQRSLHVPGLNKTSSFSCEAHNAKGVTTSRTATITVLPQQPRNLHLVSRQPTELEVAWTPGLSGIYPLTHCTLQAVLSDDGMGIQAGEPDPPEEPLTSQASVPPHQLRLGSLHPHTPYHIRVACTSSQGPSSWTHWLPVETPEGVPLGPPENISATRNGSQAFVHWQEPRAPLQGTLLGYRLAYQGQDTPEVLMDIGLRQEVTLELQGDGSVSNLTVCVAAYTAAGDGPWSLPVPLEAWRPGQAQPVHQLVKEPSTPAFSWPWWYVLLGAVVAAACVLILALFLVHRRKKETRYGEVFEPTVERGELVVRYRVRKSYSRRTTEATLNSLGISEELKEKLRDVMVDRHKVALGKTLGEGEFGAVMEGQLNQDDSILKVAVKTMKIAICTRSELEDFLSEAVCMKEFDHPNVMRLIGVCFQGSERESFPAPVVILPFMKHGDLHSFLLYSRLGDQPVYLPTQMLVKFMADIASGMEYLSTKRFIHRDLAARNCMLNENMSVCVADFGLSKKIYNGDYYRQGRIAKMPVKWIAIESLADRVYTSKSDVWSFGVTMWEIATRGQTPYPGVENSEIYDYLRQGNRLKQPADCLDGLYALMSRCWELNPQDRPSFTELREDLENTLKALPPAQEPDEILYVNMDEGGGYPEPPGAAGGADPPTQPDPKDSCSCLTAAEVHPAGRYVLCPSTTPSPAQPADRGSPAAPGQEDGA
As to the kind of experiment: Microfluidic capillary electrophoresis (MCE) kinase activity assay, Axl. The class given is biochemical.

The target of a further data set is T3, MERTK (Homo sapiens, UniProt Q12866).
T3 sequence (Q12866 21-999): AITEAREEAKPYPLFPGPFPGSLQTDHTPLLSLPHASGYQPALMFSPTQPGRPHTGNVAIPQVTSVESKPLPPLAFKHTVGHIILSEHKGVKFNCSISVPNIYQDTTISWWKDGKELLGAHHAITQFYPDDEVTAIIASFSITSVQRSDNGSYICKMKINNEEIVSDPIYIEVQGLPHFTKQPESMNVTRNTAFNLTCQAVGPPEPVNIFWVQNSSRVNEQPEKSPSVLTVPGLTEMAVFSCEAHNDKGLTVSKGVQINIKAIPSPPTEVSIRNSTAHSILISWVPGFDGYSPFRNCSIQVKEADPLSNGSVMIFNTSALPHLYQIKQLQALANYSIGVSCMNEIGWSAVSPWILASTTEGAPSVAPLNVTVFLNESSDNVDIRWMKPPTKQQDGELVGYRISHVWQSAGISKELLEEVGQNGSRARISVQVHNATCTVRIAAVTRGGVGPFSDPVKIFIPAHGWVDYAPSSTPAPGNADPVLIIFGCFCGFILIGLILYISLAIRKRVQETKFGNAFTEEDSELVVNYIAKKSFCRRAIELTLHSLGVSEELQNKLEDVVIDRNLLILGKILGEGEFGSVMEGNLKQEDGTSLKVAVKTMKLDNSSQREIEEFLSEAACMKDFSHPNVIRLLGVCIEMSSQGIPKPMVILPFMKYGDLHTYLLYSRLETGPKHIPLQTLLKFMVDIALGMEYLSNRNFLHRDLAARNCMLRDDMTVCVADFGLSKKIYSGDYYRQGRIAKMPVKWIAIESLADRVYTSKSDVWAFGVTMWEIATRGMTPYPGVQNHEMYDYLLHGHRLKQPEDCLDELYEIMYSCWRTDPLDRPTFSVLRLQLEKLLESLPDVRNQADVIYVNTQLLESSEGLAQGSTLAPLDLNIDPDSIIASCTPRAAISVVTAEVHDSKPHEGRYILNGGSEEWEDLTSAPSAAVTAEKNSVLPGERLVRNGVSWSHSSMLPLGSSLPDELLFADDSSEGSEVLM
As to the kind of experiment: Microfluidic capillary electrophoresis (MCE) kinase activity assay, Mer. The class given is biochemical.

For data set [1] the following is noted: cited from earlier work.

Description for AXL: (§1) All reactions were terminated by addition of 20 μL of 70 mM EDTA. After a 180 min incubation, phosphorylated and unphosphorylated substrate peptides (Table 6) were separated in buffer supplemented with 1× CR-8 on a LabChip EZ Reader equipped with a 12-sipper chip. Data were analyzed using EZ Reader software.
Description for MERTK: as §1
Description for TYRO3: as §1

What is called IC50 is the concentration at which inhibition is half-maximal. Low readings indicate greater potency in that assay, high ones weaker potency in that assay. Regarding `O[C@H]1CC[C@H](n2cc(-c3ccc(CN4CCSCC4)cc3)c3cnc(Nc4cc(F)cc(Cl)c4)nc32)CC1` [Compound 25], the 50% inhibitory concentration (IC50) against TYRO3 (Table 2, MCE assay, ATP at Km) is < 10 nM; at AXL (Table 2, MCE assay, ATP at Km), 100 to 1000 nM; on MERTK (Table 2, MCE assay, ATP at Km), 100 to 1000 nM.

Consider `CC(C)(C)OC(=O)N1CCN(Cc2ccc(-c3cn([C@H]4CC[C@H](O)CC4)c4nc(Nc5cc(C(F)(F)F)cc(C(F)(F)F)c5)ncc34)cc2)CC1` [Compound 26], for which the IC50 at TYRO3 (Table 2, MCE assay, ATP at Km) is 10 to 100 nM; at AXL (Table 2, MCE assay, ATP at Km), 1000 to 30000 nM; against MERTK (Table 2, MCE assay, ATP at Km) it was 1000 to 30000 nM.

As for `O[C@H]1CC[C@H](n2cc(-c3ccc(CN4CCNCC4)cc3)c3cnc(Nc4cc(C(F)(F)F)cc(C(F)(F)F)c4)nc32)CC1` [Compound 27], the IC50 is < 10 nM against TYRO3 (Table 2, MCE assay, ATP at Km); 100 to 1000 nM on AXL (Table 2, MCE assay, ATP at Km); 100 to 1000 nM against MERTK (Table 2, MCE assay, ATP at Km).

Take `CC(C)(C)OC(=O)N1CCN(Cc2ccc(-c3cn([C@H]4CC[C@H](O)CC4)c4nc(Nc5cc(F)cc(Cl)c5)ncc34)cc2)CC1` [Compound 28]: the concentration for half-maximal inhibition (IC50) against TYRO3 (Table 2, MCE assay, ATP at Km) was < 10 nM; against AXL (Table 2, MCE assay, ATP at Km) it was 100 to 1000 nM; on MERTK (Table 2, MCE assay, ATP at Km), 100 to 1000 nM.

Turning to `O[C@H]1CC[C@H](n2cc(-c3ccc(CN4CCNCC4)cc3)c3cnc(Nc4cc(F)cc(Cl)c4)nc32)CC1` [Compound 29], the IC50 at TYRO3 (Table 2, MCE assay, ATP at Km) is < 10 nM; at AXL (Table 2, MCE assay, ATP at Km) it was 10 to 100 nM; at MERTK (Table 2, MCE assay, ATP at Km) it was < 10 nM.

`CCN1CCN(Cc2ccc(-c3cn([C@H]4CC[C@H](O)CC4)c4nc(Nc5cc(F)cc(Cl)c5)ncc34)cc2)CC1` [Compound 30]: the concentration for half-maximal inhibition (IC50) at TYRO3 (Table 2, MCE assay, ATP at Km) was < 10 nM; at AXL (Table 2, MCE assay, ATP at Km), 10 to 100 nM; on MERTK (Table 2, MCE assay, ATP at Km), < 10 nM.

`O[C@H]1CC[C@H](n2cc(-c3ccc(CN4CCN(C5CCCC5)CC4)cc3)c3cnc(Nc4cc(F)cc(Cl)c4)nc32)CC1` [Compound 31]: the half-maximal inhibitory concentration (IC50) on TYRO3 (Table 2, MCE assay, ATP at Km) is < 10 nM; against AXL (Table 2, MCE assay, ATP at Km), 10 to 100 nM; at MERTK (Table 2, MCE assay, ATP at Km) it was < 10 nM.

For the compound `CN1CCC(Oc2ccc(-c3cn([C@H]4CC[C@H](O)CC4)c4nc(Nc5cc(F)cc(Cl)c5)ncc34)cc2)CC1` [Compound 37], the IC50 at TYRO3 (Table 2, MCE assay, ATP at Km) was < 10 nM; against AXL (Table 2, MCE assay, ATP at Km), 10 to 100 nM; against MERTK (Table 2, MCE assay, ATP at Km) it was < 10 nM.

With `CN1CCN(Cc2ccc(-c3cn([C@H]4CC[C@@H](O)CC4)c4nc(Nc5cc(F)cc(Cl)c5)ncc34)cc2)CC1` [Compound 39], the IC50 at TYRO3 (Table 3, MCE assay, ATP at Km) was < 10 nM; on AXL (Table 3, MCE assay, ATP at Km), 10 to 100 nM; against MERTK (Table 3, MCE assay, ATP at Km), < 10 nM.

On to `CN1CCC(Oc2ccc(-c3cn([C@H]4CC[C@H](O)CC4)c4nc(Nc5cc(F)cc(Cl)c5)ncc34)cc2)CC1` [Compound 60], for which the IC50 against TYRO3 (Table 7) was < 10 nM; on AXL (Table 7), 10 to 100 nM; against MERTK (Table 7), < 10 nM.

As to `CN1CCN(Cc2ccc(-c3cn([C@H]4CC[C@H](O)CC4)c4nc(Nc5cccnc5)ncc34)cc2)CC1` [Compound 64], the half-maximal inhibitory concentration (IC50) on TYRO3 (Table 2, MCE assay, ATP at Km) was < 10 nM; on AXL (Table 2, MCE assay, ATP at Km), < 10 nM; on MERTK (Table 2, MCE assay, ATP at Km), < 10 nM.

In the case of `CN1CCN(Cc2ccc(-c3cn([C@H]4CC[C@H](O)CC4)c4nc(Nc5cncnc5)ncc34)cc2)CC1` [Compound 66], the half-inhibitory concentration (IC50) on TYRO3 (Table 2, MCE assay, ATP at Km) is < 10 nM; on AXL (Table 2, MCE assay, ATP at Km), < 10 nM; against MERTK (Table 2, MCE assay, ATP at Km), < 10 nM.

`CN1CCC(Oc2ccc(-c3cn([C@H]4CC[C@H](O)CC4)c4nc(Nc5cc(C(F)(F)F)cc(C(F)(F)F)c5)ncc34)cc2)CC1` [Compound 150, trans-4-(2-((3,5-bis(trifluoromethyl)phenyl)amino)-5-(4-((1-methylpiperidin-4-yl)oxy)phenyl)-7H-pyrrolo[2,3-d]pyrimidin-7-yl)cyclohexan-1-ol]: the half-maximal inhibitory concentration (IC50) at TYRO3 (Table 7) fell in the range of 10 to 100 nM; on AXL (Table 7) it was 1000 to 30000 nM; at MERTK (Table 7), 1000 to 30000 nM.

Take `CN1CCN(C(=O)c2ccc(-c3cn([C@H]4CC[C@H](O)CC4)c4nc(Nc5cc(F)cc(Cl)c5)ncc34)cc2)CC1` [Compound 156]: the results for the IC50 against TYRO3 (Table 9), against AXL (Table 9) and at MERTK (Table 9) were < 10 nM, 10 to 100 nM and < 10 nM, respectively.

For `CC(=O)Oc1ccccc1C(=O)O` [aspirin], in data set [1] (in vivo), the “baseline major bleeding risk (gastrointestinal or intracranial)” value is on record as 1-4%.

For the compound `COC(=O)[C@H](c1ccccc1Cl)N1CCc2sccc2C1` [clopidogrel], the “further increase of major bleeding risk on addition as a combination therapy” value in data set [1] (added to aspirin) is on record as 1%.
